The record followed here is patent publication US8476197B2, “Aminopropenoates as fungicides” (priority 2009, dated 2013).

The structures appear in SMILES notation. Marks after values point to notes of the source that are not given here.

For one series the following is noted: pH 2.3.
For the compound `CCOC(=O)C(C#N)=C(NC(C)C(C)C)c1cccnc1OC` (stereo not shown) [Compound 961], the Log P (as a rule, the decadic logarithm of the partition coefficient of the neutral form, usually between octanol and water) is 3.52^[c]; 3.52^[b]. Take `CCOC(=O)C(C#N)=C(Nc1ccccc1OC(F)(F)F)c1cccnc1Cl` [Compound 529]: the “Log P” value is 3.52. Still for that read-out and setting: the result for `CCOC(=O)C(C#N)=C(NC[Si](C)(C)C)c1cccnc1Cl` [Compound 1085] reads 3.59; that for `COC(=O)C(C#N)=C(NC(C)c1nccs1)c1sccc1Cl` (stereo not shown) [Compound 18], 2.61.

The series is the same for the next values; noted with them: pH 2.7.
Consider `CCOC(=O)C(C#N)=C(NCc1nccs1)c1cn(C)nc1C(F)F` [Compound 68], for which the “Log P” value was 2^[a].

In the case of `CCNC(=O)C(C#N)=C(NC(C)C(C)C)c1ccnc(Cl)c1Br` (stereo not shown) [Compound 1408], the “Log P” value is 3.53^[a]. For the compound `CCOC(=O)C(C#N)=C(NC(C)C(C)(C)C)c1ccsc1Br` (racemic) [Compound 923], the “Log P” value is 4.36^[a]. For the compound `CCOC(=O)C(C#N)=C(NC1CCC1)c1scnc1Cl` [Compound 1465], the “Log P” value is 3^[a]. The same measure, in the same setting: the result for `COC(=O)C(C#N)=C(NC(C)(C)C(=O)OC)c1sc(C)nc1C(F)(F)F` [Compound 695] reads 2.9^[a]; that for `CCOC(=O)C(C#N)=C(Nc1ccc(OC(F)F)cc1)c1sccc1Br` [Compound 468], 3.73^[a]. On the same count and under the same terms, with `CCOC(=O)C(C#N)=C(Nc1ccccc1SC)c1cn(C)nc1C(F)F` [Compound 349] the figure was 3.13^[a]; with `CCOC(=O)C(C#N)=C(NC(C)Cc1c[nH]c2ccccc12)c1conc1C` (stereo not shown) [Compound 78], 3.15^[a]; with `CCOC(=O)C(C#N)=C(NC1(c2c(F)cccc2F)CC1)c1cn(C)nc1C(C)F` (racemic) [Compound 549], 3.23^[a]. Regarding `CCOC(=O)C(C#N)=C(NC(C)C1CC1)c1ccnc(Cl)c1F` (stereo not shown) [Compound 1318], the “Log P” value is 3.5^[a].

For `CCOC(=O)C(C#N)=C(NC(C)c1nccs1)c1cn(C)nc1OC` (racemic) [Compound 229], the log partition coefficient (Log P) was 2.26^[a]. On the same count and under the same terms, with `CCOC(=O)C(C#N)=C(NC(C)C(C)C)c1ccnc(CC(C)C)c1Cl` (stereo not shown) [Compound 1402] the figure was 4.81^[a]. On the same count and under the same terms, the result for `CCOC(=O)C(C#N)=C(NC(C)C(N)=O)c1conc1C` (stereo not shown) [Compound 596] reads 1.41^[a]; that for `CCOC(=O)C(C#N)=C(NC(C)(C)CSC)c1cn(C)nc1C(F)F` [Compound 703], 2.84^[a]. Still for that read-out and setting: with `CCOC(=O)C(C#N)=C(NC(C)C(C)C)c1ccncc1Br` (stereo not shown) [Compound 996] the figure was 3.33^[a]; with `CCOC(=O)C(C#N)=C(NC(C)c1nccs1)c1ccnc(Cl)c1Br` (racemic) [Compound 1406], 2.96^[a]; with `CCOC(=O)C(C#N)=C(NC(C)C1=NOCCO1)c1cccnc1Cl` (stereo not shown) [Compound 1117], 2.11^[a]. With `CCOC(=O)C(C#N)=C(NCC#N)c1cn(C)nc1C(F)F` [Compound 788], the “Log P” value is 1.79^[a]. As to `CCOC(=O)C(C#N)=C(NC(C)c1nc(C)c(C)s1)c1cn(C)nc1C(F)(F)F` (stereo not shown) [Compound 64], the “Log P” value was 3.48^[a].

Regarding `CCOC(=O)C(C#N)=C(NC(C)C1CC1)c1ccnc2ccccc12` (racemic) [Compound 1500], the “Log P” value is 3.02^[a]. On the same count and under the same terms, with `CCOC(=O)C(C#N)=C(NC1CCc2cccnc21)c1cccnc1Cl` (stereo not shown) [Compound 1436] the figure was 2.4^[a]; with `CCOC(=O)C(C#N)=C(NC(C)C1CC1)c1ncc(Cl)cc1Cl` (stereo not shown) [Compound 889], 3.8^[a]; with `CCOC(=O)C(C#N)=C(NC(C)C(C)C)c1cccnc1C(F)F` (stereo not shown) [Compound 981], 3.15^[a]. On the same count and under the same terms, with `CCOC(=O)C(C#N)=C(NC(C(=O)OC)C(C)C)c1ccsc1Br` (stereo not shown) [Compound 716] the figure was 3.71^[a]; with `CCOC(=O)C(C#N)=C(NC(C)c1nccs1)c1ccnc(Br)c1F` (stereo not shown) [Compound 1330], 3^[a]; with `C=CC(COCc1ccccc1)NC(=C(C#N)C(=O)OCC)c1sccc1Br` (stereo not shown) [Compound 689], 4.31^[a]. As for `CCOC(=O)C(C#N)=C(NC(C)c1csc(C)n1)c1cccnc1Cl` (stereo not shown) [Compound 1524], the “Log P” value was 2.84^[a]. Same read-out and setting: the result for `CCOC(=O)C(C#N)=C(NC(C)C(F)(F)F)c1cn(C)nc1C(F)F` (racemic) [Compound 1253] reads 2.92^[a]; that for `CCOC(=O)C(C#N)=C(NC(C)COc1cccc(C(F)(F)F)c1)c1cn(C)nc1C(F)F` (racemic) [Compound 1237], 3.92^[a]; that for `CCOC(=O)C(C#N)=C(NC(C)c1ccc(C(F)(F)F)cn1)c1cccnc1Cl` (mixture of isomers) [Compound 285], 3.5^[a]. Still for that read-out and setting: the result for `CCOC(=O)C(C#N)=C(NC(C(=O)OC)C(C)C)c1sc(C)nc1C(F)(F)F` (stereo not shown) [Compound 682] reads 3.64^[a]; that for `COC(=O)C(C#N)=C(NC(C)C(C)C)c1sc(C)nc1C(F)(F)F` (stereo not shown) [Compound 948], 3.63^[a]. Same read-out and setting: the result for `CCOC(=O)C(C#N)=C(NC(C)c1ccc(Cl)cc1)c1nsc(Cl)c1Cl` (stereo not shown) [Compound 355] reads 4.65^[a]. In the case of `CCOC(=O)C(C#N)=C(NC(C)c1nccs1)c1sc(C)nc1C(F)(F)F` (racemic) [Compound 142], the “Log P” value is 3.13^[a].

As to `CCOC(=O)C(C#N)=C(NC(C)c1ccc(Cl)cc1)c1sccc1Cl` (stereo not shown) [Compound 434], the “Log P” value is 4.4^[a].

With `CCOC(=O)C(C#N)=C(NC1CCC(OCC)CC1)c1cccnc1Cl` (stereo not shown) [Compound 1370], the log partition coefficient (Log P) is 3.31^[a].

Consider `CCOC(=O)C(C#N)=C(NC(C)c1nccs1)c1ccnc(Cl)c1Cl` (mixture of isomers) [Compound 291], for which the “Log P” value is 2.96^[a].

Turning to `CCOC(=O)C(C#N)=C(NC(C)COCc1ccccc1F)c1cccnc1Cl` (stereo not shown) [Compound 1163], the “Log P” value was 3.69^[a]. Still for that read-out and setting: the result for `CCOC(=O)C(C#N)=C(Nc1ccc(Cl)cc1)c1sccc1Br` [Compound 457] reads 4.11^[a]; that for `CCOC(=O)C(C#N)=C(NC(C)C1CC1)c1nc(Cl)ccc1Cl` (stereo not shown) [Compound 888], 3.73^[a]; that for `COC(=O)C(C#N)=C(NC(C)c1sc(C)nc1C)c1sc(C)nc1C(F)(F)F` (racemic) [Compound 179], 2.8^[a]. On the same count and under the same terms, with `COC(=O)C(C#N)=C(NC(C)c1ccc(F)cc1)c1cccnc1Cl` (stereo not shown) [Compound 397] the figure was 2.89^[a]. In the case of `CCOCC(C)NC(=C(C#N)C(=O)OC)c1cccnc1Cl` (stereo not shown) [Compound 624], the “Log P” value is 2.42^[a]. `CCOC(=O)C(C#N)=C(NC(C)(C)CC)c1cccnc1Cl` [Compound 1425]: the “Log P” value was 3.23^[a]. Same read-out and setting: with `CCOC(=O)C(C#N)=C(Nc1cccc(SC)c1)c1ccsc1Br` [Compound 537] the figure was 4.04^[a]; with `CCC#CC(C)(C)NC(=C(C#N)C(=O)OC)c1cccnc1Cl` [Compound 1025], 2.98^[a]. As for `CCOC(=O)C(C#N)=C(NC(C)c1ccc(F)cc1)c1sccc1Br` (mixture of isomers) [Compound 446], the “Log P” value was 4.06^[a]. As to `CCOC(=O)C(C#N)=C(NCc1nc(C)cs1)c1ccsc1Br` [Compound 246], the “Log P” value was 2.94^[a]. The same measure, in the same setting: with `CCOC(=O)C(C#N)=C(NC(C)C(=O)OCC)c1cn(C)nc1C(F)F` (stereo not shown) [Compound 686] the figure was 2.62^[a]; with `CCOC(=O)C(C#N)=C(Nc1ccc2ncsc2c1)c1cccnc1Cl` [Compound 1269], 2.54^[a]; with `CCOCC(NC(=C(C#N)C(=O)OCC)c1cn(C)nc1C(F)F)C(C)C` (stereo not shown) [Compound 1350], 3.39^[a]. On the same count and under the same terms, with `C#CC(C)(C)NC(=C(C#N)C(=O)OCC)c1sccc1Cl` [Compound 1032] the figure was 3.41^[a]; with `CCOC(=O)C(C#N)=C(NC(C)Cc1c[nH]c2ccccc12)c1c(C)nn(C)c1F` (racemic) [Compound 46], 3.07^[a]; with `COC(=O)C(C#N)=C(NCc1nc(C(F)(F)F)cs1)c1sc(C)nc1C(F)(F)F` [Compound 185], 3.06^[a].

In the case of `COC(=O)C(C#N)=C(NC(C)(C)CC(F)(F)F)c1cccnc1Cl` [Compound 758], the “Log P” value is 2.34^[a]. The same measure, in the same setting: with `CCOC(=O)C(C#N)=C(NC(C)c1ccccn1)c1nsc(Cl)c1Cl` (stereo not shown) [Compound 71] the figure was 3.35^[a]; with `CCOC(=O)C(C#N)=C(NC(C)C1CC1)c1cccnc1Cl` (stereo not shown) [Compound 909], 3.1^[a]. On the same count and under the same terms, with `CCOC(=O)C(C#N)=C(NC(C)c1ccccn1)c1ccnc(Cl)c1Br` (racemic) [Compound 1404] the figure was 3.06^[a]; with `CCOC(=O)C(C#N)=C(NC1(c2ccccc2Cl)CC1)c1cn(C)nc1C(F)F` [Compound 1362], 3.35^[a]. In the case of `CCOC(=O)C(C#N)=C(NC(C)c1ccc(Cl)cc1)c1cn(C)nc1OC` (racemic) [Compound 506], the “Log P” value is 3.51^[a]. With `CCOC(=O)C(C#N)=C(NC(C)C(=O)CC)c1cn(C)nc1C(F)F` (racemic) [Compound 1240], the “Log P” value is 2.47^[a]. The same measure, in the same setting: with `CCOC(=O)C(C#N)=C(NC(C)CCc1ccccc1)c1sc(C)nc1C(F)(F)F` (mixture of isomers) [Compound 449] the figure was 4.36^[a]; with `CCOC(=O)C(C#N)=C(NCc1nc(C(F)(F)F)cs1)c1sccc1Br` [Compound 171], 3.37^[a]. Same read-out and setting: with `CCOC(=O)C(C#N)=C(NC(c1cncnc1C)C(C)C)c1cccnc1Cl` (racemic) [Compound 1538] the figure was 2.28^[a]; with `CCOC(=O)C(C#N)=C(NC(C)COC)c1sccc1Br` (racemic) [Compound 671], 3.17^[a].

Staying with this series, now noted: pH 7.5.
As to `CCOC(=O)C(C#N)=C(NC(C)C(C)C)c1cccnc1OC` (stereo not shown) [Compound 961], the “Log P” value was 3.52^[c]; 3.52^[b].

Regarding `CCOC(=O)C(C#N)=C(Nc1ccccc1OC(F)(F)F)c1cccnc1Cl` [Compound 529], the “Log P” value is 3.46.

Turning to `CCOC(=O)C(C#N)=C(NC[Si](C)(C)C)c1cccnc1Cl` [Compound 1085], the “Log P” value worked out at 3.46. On to `COC(=O)C(C#N)=C(N[C@@H](C)C1CCCCC1)c1cccnc1Cl` [Compound 870], for which the “Log P” value was determined as 3.76. In the case of `COC(=O)C(C#N)=C(NC(C)C1CC1)c1cccnc1Cl` (mixture of isomers) [Compound 1307], the “Log P” value amounted to 2.58. Still for that read-out and setting: the result for `CCOC(=O)C(C#N)=C(NC(C)c1nc(C(=O)N(C)C)cs1)c1cccnc1Cl` (mixture of isomers) [Compound 304] reads 2.08; that for `COC(=O)C(C#N)=C(NC(C)c1nccs1)c1sccc1Cl` (stereo not shown) [Compound 18], 2.59.
